Laboratory results as given in the NIST ThermoML archive (doi:10.1016/j.fluid.2012.01.008).
Numbers after ± are expanded uncertainties.

Settings: 313.15 K; Liquid; Closed cell (Static) method

Compound	vapor or sublimation pressure [kPa]
CCCCCCC [heptane]	12.34 ± 0.03
Cc1ccccc1 [toluene]	7.886 ± 0.022
